Patent US7195769B2, “Pharmaceutical compositions of anti-tubercular drugs and process for their preparation” (Panacea Biotec Limited, priority 2000, dated 2007)

Assay: pH dependence of rifampicin degradation in presence of isoniazid
Assay type: physicochemical
Description: Thereafter, above pH 3 the degradation is minimal.

## CO[C@H]1/C=C/O[C@@]2(C)Oc3c(C)c(O)c4c(O)c(c(/C=N/N5CCN(C)CC5)c(O)c4c3C2=O)NC(=O)/C(C)=C\C=C\[C@H](C)[C@H](O)[C@@H](C)[C@@H](O)[C@@H](C)[C@H](OC(C)=O)[C@@H]1C [rifampicin]
Above pH 3
  degradation of rifampicin in presence of isoniazid: minimal
pH around 1
  degradation of rifampicin in presence of isoniazid: minimum
pH between 2 and 3
  degradation of rifampicin in presence of isoniazid: increases abruptly
